Reference: ChEMBL document CHEMBL3885861, “Open TG-GATES”

Species: Rattus norvegicus
Experiment: Open TG-GATES - Regimen: Single
Type: toxicity, organism-based, Sprague-Dawley
Parameters: regimen Single, gender Male, age 6 weeks
Details: in vivo, po, 300 mg/kg, route gavage, dose level Middle; for APTT / Bas / Eos / Fbg / Hb / Ht / Lym / MCH / MCHC / MCV / Mono / Neu / PT / Plat / RBC / Ret / WBC: tissue Blood; for KIDNEY_L / KIDNEY_R / KIDNEY_TOTAL: tissue Kidney; for LIVER: tissue Liver; for A/G / ALP / ALT / AST / BUN / CRE / Ca / Cl / DBIL / GLC / IP / K / LDH / Na / PL / RALB / TBIL / TC / TG / TP / gamma-GTP: tissue Plasma

Compound: O=C(O)c1cc(/N=N/c2ccc(S(=O)(=O)Nc3ccccn3)cc2)ccc1O [SULFASALAZINE]
- TERMINAL_BW (9 h): 206.7 g
- APTT (9 h): 19.2 s
- Bas (9 h): 0%
- Eos (9 h): 1%
- Fbg (9 h): 233.2 mg/dL
- Hb (9 h): 13 g/dL
- Ht (9 h): 38.1%
- Lym (9 h): 72.8%
- MCH (9 h): 21.6 pg
- MCHC (9 h): 34.1%
- MCV (9 h): 63.2 fL
- Mono (9 h): 2.6%
- Neu (9 h): 22.6%
- PT (9 h): 12.7 s
- Plat (9 h): 118.9 x10_4/uL
- RBC (9 h): 603 x10_4/ul
- Ret (9 h): 7.5%
- WBC (9 h): 81.5 x10_2/uL
- KIDNEY_L (9 h): 0.9 g
- KIDNEY_R (9 h): 0.9 g
- KIDNEY_TOTAL (9 h): 1.8 g
- LIVER (9 h): 8.6 g
- A/G (9 h): 1.5
- ALP (9 h): 961.6 IU/L
- ALT (9 h): 32.4 IU/L
- AST (9 h): 65.2 IU/L
- BUN (9 h): 8.8 mg/dL
- CRE (9 h): 0.3 mg/dL
- Ca (9 h): 10.5 mg/dL
- Cl (9 h): 103.2 meq/L
- DBIL (9 h): 0.064 mg/dL
- GLC (9 h): 198.6 mg/dL
- IP (9 h): 9.3 mg/dL
- K (9 h): 3.5 meq/L
- LDH (9 h): 183 IU/L
- Na (9 h): 140.8 meq/L
- PL (9 h): 149.2 mg/dL
- RALB (9 h): 3.3 g/dL
- TBIL (9 h): 0.1 mg/dL
- TC (9 h): 83.2 mg/dL
- TG (9 h): 44.2 mg/dL
- TP (9 h): 5.5 g/dL
- gamma-GTP (9 h): 1.2 IU/L
- TERMINAL_BW (24 h): 224.2 g
- APTT (24 h): 17.4 s
- Bas (24 h): 0%
- Eos (24 h): 0.8%
- Fbg (24 h): 233 mg/dL
- Hb (24 h): 12.8 g/dL
- Ht (24 h): 37.6%
- Lym (24 h): 75%
- MCH (24 h): 21.2 pg
- MCHC (24 h): 34.2%
- MCV (24 h): 62.1 fL
- Mono (24 h): 2.6%
- Neu (24 h): 19.8%
- PT (24 h): 12.4 s
- Plat (24 h): 122 x10_4/uL
- RBC (24 h): 605.8 x10_4/ul
- Ret (24 h): 6.5%
- WBC (24 h): 104.1 x10_2/uL
- KIDNEY_L (24 h): 1 g
- KIDNEY_R (24 h): 1 g
- KIDNEY_TOTAL (24 h): 1.9 g
- LIVER (24 h): 10.6 g
- A/G (24 h): 1.4
- ALP (24 h): 992.4 IU/L
- ALT (24 h): 40 IU/L
- AST (24 h): 62.8 IU/L
- BUN (24 h): 13.8 mg/dL
- CRE (24 h): 0.4 mg/dL
- Ca (24 h): 10.9 mg/dL
- Cl (24 h): 101.8 meq/L
- DBIL (24 h): 0.088 mg/dL
- GLC (24 h): 187.2 mg/dL
- IP (24 h): 7.2 mg/dL
- K (24 h): 3.9 meq/L
- LDH (24 h): 224 IU/L
- Na (24 h): 140.6 meq/L
- PL (24 h): 163.6 mg/dL
- RALB (24 h): 3.3 g/dL
- TBIL (24 h): 0.1 mg/dL
- TC (24 h): 86.8 mg/dL
- TG (24 h): 85.6 mg/dL
- TP (24 h): 5.6 g/dL
- gamma-GTP (24 h): 1.2 IU/L
